# Experimental data as given in patent publication US7897582B2, “Oligonucleotide compositions and methods for the modulation of the expression of B7 protein” (Isis Pharmaceuticals, Inc., priority 2003, dated 2011).
# Strand notation (5' to 3'): a small letter for the sugar, then the base; units joined by * are phosphorothioate-linked, units joined directly phosphodiester-linked; [ ] holds rarer units or linkages, { } end groups; capitals alone tell only the bases. e = 2'-O-(2-methoxyethyl) (MOE); [5mC] = 5-methylcytosine; d = 2'-deoxy (DNA)
# Assays:
# Mouse B7-2 mRNA = Mouse B7-2 mRNA expression, screened as in Example 4; assay type: cell-based; set-up: % mRNA INHIBITION: concentration or dose not given beside the values; conditions: for % mRNA INHIBITION: screened as in Example 4; for % mRNA EXPRESSION: screened as in Example 4, basal = 100.0%
# Method: For ribonuclease protection assays, cells were harvested 18 hours after completion of oligonucleotide treatment using a Totally RNA™ kit (Ambion, Austin, Tex.). The probes for the assay were generated from plasmids pcB7-2 (linearized by digestion with Bgl II) and pTRI-b-actin (Ambion Inc., Austin, Tex.). In vitro transcription of the linearized plasmid from the SP6 promoter was performed in the presence of α-^32P-UTP (800 Ci/mmole) yielding an antisense RNA complementary to the 3′ end of B7-2 (position 1044-1391). The probe was gel-purified after treatment with DNase I to remove DNA template. Ribonuclease protection assays were carried out using an RPA II™ kit (Ambion) according to the manufacturer's directions. Total RNA (5 μg) was hybridized overnight, at 42° C., with 10^5 cpm of the B7-2 probe or a control beta-actin probe. The hybridization reaction was then treated, at 37° C. for 30 minutes, with 0.4 units of RNase A and 2 units of RNase T1. Protected RNA was precipitated, resuspended in 10 μL of gel loading buffer and electrophoresed on a 6% acrylamide gel with 50% w/v urea at 20 W. The gel was then exposed and the lanes quantitated using a PhosphorImager (Molecular Dynamics, Sunnyvale, Calif.) essentially according to the manufacturer's instructions.
# Oligonucleotides were screened as described in Example 4.
# human B7-1 = assay: Cell surface expression of B7-1 in pcB7-1-transfected COS-7 cells by flow cytometry; assay type: cell-based; conditions: for % B7-1 EXPRESSION: human B7 cell surface expression, Table 16; for % Surface Inhibition / % Surface Expression: COS-7 cells, B7-1 cell surface; for % Surface Expression: basal = 100%
# Method: The ability of oligonucleotides to inhibit B7-1 expression was evaluated by measuring the cell surface expression of B7-1 in transfected COS-7 cells by flow cytometry.
# (§1) A T-175 flask was seeded at 75% confluency with COS-7 cells (ATCC accession No. CRL 1651). The plasmid pcB7-1 was introduced into cells by standard calcium phosphate transfection. Following a 4 hour transfection, the cells were trypsinized and seeded in 12-well dishes at 80% confluency. The cells were allowed to adhere to the plastic for 1 hour and were then washed with phosphate-buffered saline (PBS). OptiMEM™ (GIBCO-BRL, Gaithersburg, Md.) medium was added along with 15 μg/mL of Lipofectin™ (GIBCO-BRL, Gaithersburg, Md.) and oligonucleotide at the indicated concentrations. After four additional hours, the cells were washed with phosphate buffered saline (PBS) and incubated with fresh oligonucleotide at the same concentration in DMEM (Dulbecco et al., Virol., 1959, 8, 396; Smith et al., Virol., 1960, 12, 185) with 10% fetal calf sera (FCS).
# (§2) In order to monitor the effects of oligonucleotides on cell surface expression of B7-1, treated COS-7 cells were harvested by brief trypsinization 24-48 hours after oligonucleotide treatment. The cells were washed with PBS, then resuspended in 100 μL of staining buffer (PBS, 0.2% BSA, 0.1% azide) with 5 μL conjugated anti-B7-1-antibody (i.e., anti-hCD80-FITC, Ancell, Bayport, Minn.; FITC: fluorescein isothiocyanate). The cells were stained for 30 minutes at 4° C., washed with PBS, resuspended in 300 μL containing 0.5% paraformaldehyde. Cells were harvested and the fluorescence profiles were determined using a flow cytometer.
# (§3) B7 antisense oligonucleotides were tested for their effect on cell surface expression of both B7-1 and B7-2. Cell surface expression was measured as described in Example 1. Experiments were done for both human B7 and mouse B7.
# The oligonucleotides were screened as described in Example 2 except that the concentration of oligonucleotide was varied as shown in Table 18.
# human B7-2 = assay: Cell surface expression of B7-2 in transfected COS-7 cells by flow cytometry; assay type: cell-based; conditions: for % Surface Inhibition / % Surface Expression: COS-7 cells, B7-2 cell surface; for % Surface Expression: basal = 100%; for % B7-2 EXPRESSION: human B7 cell surface expression, Table 16
# Method: as §1, §2
# In an initial screen, the ability of hB7-2 oligonucleotides to inhibit B7-2 expression was evaluated by measuring the cell surface expression of B7-2 in transfected COS-7 cells by flow cytometry. The methods used were similar to those given in Example 2, with the exceptions that (1) COS-7 cells were transfected with the plasmids pbcB7-2 or BBG-58, a human ICAM-1 (CD54) expression vector (R&D Systems, Minneapolis, Minn.) introduced into cells by standard calcium phosphate transfection, (2) the oligonucleotides used were those described in Table 2, and (3) a conjugated anti-B7-2 antibody (i.e., anti-hCD86-FITC or anti-CD86-PE, PharMingen, San Diego, Calif.; PE: phycoerythrin) was used during flow cytometry.
# as §3
# The oligonucleotides were screened as described in Example 2 except that the concentration of oligonucleotide was varied as shown in Table 19.
# hB7-2 mRNA = assay: Ribonuclease protection assay of hB7-2 mRNA in transfected COS-7 cells; assay type: cell-based, human
# Procedure, shortened: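 COS-7 cells transfected with hB7-2 were treated with antisense oligonucleotides at varied concentrations, mismatch controls included; RNA taken 18 h after treatment. 5 μg total RNA hybridised overnight at 42° C with 32P antisense probe (B7-2 positions 1044-1391) or beta-actin probe, RNase A/T1 digested, gel-resolved and quantified by phosphorimaging.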
# Human B7-1 mRNA = Human B7-1 mRNA expression in COS-7 cells, screened as in Example 4; assay type: cell-based
substance,measurement,setting,value
18084 (antisense eG*e[5mC]*eT*eG*e[5mC]*d[5mC]*dT*dA*d[5mC]*dA*dG*dG*dA*dG*d[5mC]*e[5mC]*eA*e[5mC]*eT*e[5mC]) [compound 18084],% mRNA INHIBITION,Mouse B7-2 mRNA,63.6%
same,% mRNA EXPRESSION,Mouse B7-2 mRNA,36.4%
18085 (antisense eT*e[5mC]*eA*eA*eG*dT*d[5mC]*d[5mC]*dG*dT*dG*d[5mC]*dT*dG*d[5mC]*e[5mC]*eT*eA*e[5mC]*eA) [compound 18085],% mRNA INHIBITION,Mouse B7-2 mRNA,65.0%
same,% mRNA EXPRESSION,Mouse B7-2 mRNA,35.0%
22294 (eG*eG*eT*e[5mC]*e[5mC]*dA*dA*d[5mC]*dT*dG*dT*d[5mC]*d[5mC]*dG*dA*eA*eT*e[5mC]*eA*eA; antisense) [compound 22294],% B7-1 EXPRESSION,human B7-1,77%
same,% Surface Inhibition,human B7-2; dose 10 nM,11%
same,% Surface Expression,human B7-2; dose 10 nM,89%
same,% Surface Inhibition,human B7-2; dose 30 nM,38%
same,% Surface Expression,human B7-2; dose 30 nM,62%
same,% Surface Inhibition,human B7-2; dose 100 nM,71%
same,% Surface Expression,human B7-2; dose 100 nM,29%
same,% Surface Inhibition,human B7-2; dose 300 nM,88%
same,% Surface Expression,human B7-2; dose 300 nM,12%
same,% B7-2 EXPRESSION,human B7-2,28%
same,% mRNA INHIBITION,"hB7-2 mRNA; COS-7 cells, B7-2 mRNA, oligonucleotide dose 10 nM",7%
same,% mRNA EXPRESSION,"hB7-2 mRNA; COS-7 cells, B7-2 mRNA, oligonucleotide dose 10 nM, basal = 100%",93%
same,% mRNA INHIBITION,"hB7-2 mRNA; COS-7 cells, B7-2 mRNA, oligonucleotide dose 30 nM",5%
same,% mRNA EXPRESSION,"hB7-2 mRNA; COS-7 cells, B7-2 mRNA, oligonucleotide dose 30 nM, basal = 100%",95%
same,% mRNA INHIBITION,"hB7-2 mRNA; COS-7 cells, B7-2 mRNA, oligonucleotide dose 100 nM",42%
same,% mRNA EXPRESSION,"hB7-2 mRNA; COS-7 cells, B7-2 mRNA, oligonucleotide dose 100 nM, basal = 100%",58%
same,% mRNA INHIBITION,"hB7-2 mRNA; COS-7 cells, B7-2 mRNA, oligonucleotide dose 300 nM",55%
same,% mRNA EXPRESSION,"hB7-2 mRNA; COS-7 cells, B7-2 mRNA, oligonucleotide dose 300 nM, basal = 100%",45%
same,% mRNA EXPRESSION,"hB7-2 mRNA; human B7-2 mRNA, Table 12",21%
22316 (eG*e[5mC]*eT*e[5mC]*eA*d[5mC]*dG*dT*dA*dG*dA*dA*dG*dA*d[5mC]*e[5mC]*e[5mC]*eT*e[5mC]*e[5mC]; antisense) [compound 22316],% Surface Inhibition,human B7-1; dose 10 nM,26%
same,% Surface Expression,human B7-1; dose 10 nM,74%
same,% Surface Inhibition,human B7-1; dose 30 nM,26%
same,% Surface Expression,human B7-1; dose 30 nM,74%
same,% Surface Inhibition,human B7-1; dose 100 nM,53%
same,% Surface Expression,human B7-1; dose 100 nM,47%
same,% Surface Inhibition,human B7-1; dose 300 nM,66%
same,% Surface Expression,human B7-1; dose 300 nM,34%
same,% B7-1 EXPRESSION,human B7-1,31%
same,% B7-2 EXPRESSION,human B7-2,100%
same,% mRNA EXPRESSION,"Human B7-1 mRNA; 10 nM, COS-7, Table 8",99%
same,% mRNA INHIBITION,"Human B7-1 mRNA; 10 nM, COS-7, Table 8",1%
same,% mRNA EXPRESSION,"Human B7-1 mRNA; 30 nM, COS-7, Table 8",73%
same,% mRNA INHIBITION,"Human B7-1 mRNA; 30 nM, COS-7, Table 8",27%
same,% mRNA EXPRESSION,"Human B7-1 mRNA; 100 nM, COS-7, Table 8",58%
same,% mRNA INHIBITION,"Human B7-1 mRNA; 100 nM, COS-7, Table 8",42%
same,% mRNA EXPRESSION,"Human B7-1 mRNA; 300 nM, COS-7, Table 8",33%
same,% mRNA INHIBITION,"Human B7-1 mRNA; 300 nM, COS-7, Table 8",67%
same,% mRNA EXPRESSION,"Human B7-1 mRNA; human B7-1 mRNA, Table 7",42%
22317 (eT*e[5mC]*e[5mC]*e[5mC]*eA*dG*dG*dT*dG*d[5mC]*dA*dA*dA*dA*d[5mC]*eA*eG*eG*e[5mC]*eA; antisense) [compound 22317],% B7-1 EXPRESSION,human B7-1,28%
same,% B7-2 EXPRESSION,human B7-2,91%
same,% mRNA EXPRESSION,"Human B7-1 mRNA; human B7-1 mRNA, Table 7",43%
22320 (eT*eT*eG*eA*eG*dG*dT*dA*dT*dG*dG*dA*d[5mC]*dA*d[5mC]*eT*eT*eG*eG*eA; antisense) [compound 22320],% B7-1 EXPRESSION,human B7-1,37%
same,% B7-2 EXPRESSION,human B7-2,86%
same,% mRNA EXPRESSION,"Human B7-1 mRNA; human B7-1 mRNA, Table 7",45%
